Assay results taken from PubChem BioAssay (NCI).
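Five compound concentrations were applied to cells in 96-well plates for 48 hours; endpoints were derived by simple linear interpolation of the resulting dose-response curve. Definition used: TGI = concentration required for complete inhibition of growth.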

What was measured:
Test in all cases: NCI-60 cell line screen, 48 h
SN12C renal = test system: SN12C renal
MDA-MB-435 = test system: MDA-MB-435
BT-549 breast = test system: BT-549 breast
CCRF-CEM leukemia = test system: CCRF-CEM leukemia
SF-539 CNS = test system: SF-539 CNS
MALME-3M melanoma = test system: MALME-3M melanoma
OVCAR-3 ovarian = test system: OVCAR-3 ovarian
T-47D breast = test system: T-47D breast
HS 578T breast = test system: HS 578T breast
SK-MEL-2 melanoma = test system: SK-MEL-2 melanoma
786-0 renal = test system: 786-0 renal
UO-31 renal = test system: UO-31 renal
KM12 colon = test system: KM12 colon
MCF7 breast = test system: MCF7 breast
SF-268 CNS = test system: SF-268 CNS
MDA-MB-231 breast = test system: MDA-MB-231 breast
NCI-H522 lung = test system: NCI-H522 lung
HOP-92 NSCLC = test system: HOP-92 NSCLC

SMILES	TGI (SN12C renal)	TGI (MDA-MB-435)	TGI (BT-549 breast)	TGI (CCRF-CEM leukemia)	TGI (SF-539 CNS)	TGI (MALME-3M melanoma)	TGI (OVCAR-3 ovarian)	TGI (T-47D breast)	TGI (HS 578T breast)	TGI (SK-MEL-2 melanoma)	TGI (786-0 renal)	TGI (UO-31 renal)	TGI (KM12 colon)	TGI (MCF7 breast)	TGI (SF-268 CNS)	TGI (MDA-MB-231 breast)	TGI (NCI-H522 lung)	TGI (HOP-92 NSCLC)
CCCC(C)NC(=O)c1ccc(N(C)Cc2cnc3nc(N)nc(N)c3n2)cc1 (stereo not given)	> 100 µM	48.2 µM	41.6 µM	> 100 µM	32.3 µM	39.3 µM	46.2 µM	53.9 µM	44.2 µM	49 µM	> 100 µM	> 100 µM	> 100 µM	78 µM	> 100 µM	> 100 µM		
COC(=O)C1=C(OC(=O)/C=C/c2ccc(Cl)cc2)C(C(=O)OC)[C@]2(O)[C@@H](C(=O)OC)[C@H]1C[C@@H](c1ccccc1)[C@@H]2C(=O)OC (stereo not given in full)	> 29.5 µM	> 100 µM	> 28.5 µM	> 100 µM	35.6 µM	20.4 µM	> 100 µM	> 100 µM	94 µM	> 27.9 µM	> 25.2 µM	> 30.9 µM	> 100 µM		> 25.4 µM	> 65.9 µM	5.83 µM	7.73 µM
COC(=O)c1nn2ccc3ccccc3c2c1C(=O)OC	> 100 µM	> 100 µM	> 100 µM		> 100 µM	> 100 µM		> 100 µM	> 100 µM	> 100 µM	> 100 µM	> 100 µM	> 100 µM	> 100 µM	> 100 µM	> 100 µM	> 100 µM	> 100 µM
CC(C)CCC[C@@H](C)C1CCC2[C@@H]3CCC4C[C@@H](NS(C)(=O)=O)CC[C@]4(C)C3CC[C@@]21C (stereo not given in full)	> 100 µM	> 100 µM	> 100 µM	> 100 µM	> 100 µM	> 100 µM	> 100 µM	> 100 µM	> 100 µM	> 100 µM	> 100 µM	> 100 µM	> 100 µM	> 100 µM	> 100 µM	> 100 µM	> 100 µM	
N/C(=N\N=C\c1cc(I)cc(I)c1O)NO	> 100 µM	> 100 µM	> 100 µM	52.4 µM	75.6 µM	56.7 µM	14.6 µM	> 100 µM	> 100 µM	> 100 µM	> 100 µM		> 100 µM	74.7 µM	> 100 µM	> 100 µM	> 100 µM	
CCCCOCOc1ccccc1P1(=O)COc2ccccc2OC1	> 100 µM	> 100 µM	> 100 µM	> 100 µM	> 100 µM	> 100 µM	> 100 µM	> 100 µM	> 100 µM	> 100 µM	> 100 µM	> 100 µM	> 100 µM	> 100 µM	> 100 µM	> 100 µM		> 100 µM
CCN(CC)c1ccc(C2Nc3ccc4ccccc4c3C3=C2C(=O)CCC3)cc1 (stereo not given)	> 100 µM	> 100 µM	> 100 µM	> 100 µM	28.1 µM	> 100 µM	> 100 µM	> 100 µM	34.4 µM	> 100 µM	76.8 µM	> 100 µM	> 100 µM	> 100 µM	> 100 µM	50.8 µM		
